Measured values as given in patent US20230265151A1, “GIP/GLP1 CO-AGONIST COMPOUNDS” (priority 2020, published 2023).
Where two headings read alike, the source gives them in different places. *1 amine or outer side, *2 acyl side, *3 side chain or, on linkers, in order; H or OH if unused. Where a SMILES comes first, the peptide text is derived from it. Side-chain parts run from the residue outwards. [ ]: non-standard residue; d: D form. The star is where a group is joined. αMePhe(2-F) = C[C@](N)(Cc1ccccc1F)C(=O)O; γGlu = O=C(O)[C@H](CCC(=O)[*:2])N[*:1]; C14 diacid = O=C(O)CCCCCCCCCCCCC(=O)*; αMeY = C[C@](N)(Cc1ccc(O)cc1)C(=O)O; 4Pal = N[C@@H](Cc1ccncc1)C(=O)O; αMeL = CC(C)C[C@](C)(N)C(=O)O; Orn = NCCC[C@H](N)C(=O)O; AEEA = NCCOCCOCC(=O)O; Aib = CC(C)(N)C(=O)O

What was measured:
[1] = biological target: T1, human GLP-1 receptor (hGLP-1R) (Homo sapiens, UniProt P43220); test: [125I]-GLP-1 binding, SPA with membranes of HEK293 cells expressing hGLP-1R; settings: human GLP-1R; geometric mean (SEM, n); read-out: Binding Affinity Ki, nM (SEM, n) hGLP-1R
T1 construct: expressed in transfected cells; crude membranes
T1 sequence (P43220 24-463): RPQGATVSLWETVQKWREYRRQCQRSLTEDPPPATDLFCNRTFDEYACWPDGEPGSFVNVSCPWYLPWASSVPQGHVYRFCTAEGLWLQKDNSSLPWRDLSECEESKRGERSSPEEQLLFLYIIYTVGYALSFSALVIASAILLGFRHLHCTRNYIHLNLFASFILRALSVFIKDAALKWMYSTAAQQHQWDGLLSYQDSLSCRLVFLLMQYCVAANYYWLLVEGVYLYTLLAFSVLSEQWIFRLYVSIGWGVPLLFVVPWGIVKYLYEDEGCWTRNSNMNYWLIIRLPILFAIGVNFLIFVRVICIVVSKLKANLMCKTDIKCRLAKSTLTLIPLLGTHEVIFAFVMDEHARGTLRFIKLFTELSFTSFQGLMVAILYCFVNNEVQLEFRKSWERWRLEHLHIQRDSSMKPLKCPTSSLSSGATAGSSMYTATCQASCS
Procedure: Two methods are used for the preparation of crude cell membranes.
Method 1: Frozen cell pellets are lysed on ice in hypotonic buffer containing 50 mM Tris HCl, pH 7.5, and Roche Complete™ Protease Inhibitors with EDTA. […] The homogenate is centrifuged at 4° C. at 1100 × g for 10 minutes. The supernatant is collected and stored on ice while the pellets are resuspended in homogenization buffer and rehomogenized as described above. The homogenate is centrifuged at 1100 × g for 10 minutes. The second supernatant is combined with the first supernatant and centrifuged at 35000 × g for 1 hour at 4° C. The resulting membrane pellet is resuspended in homogenization buffer containing protease inhibitors at approximately 1 to 3 mg/mL, quick frozen in liquid nitrogen and stored as aliquots in a -80° C. freezer until use.
The homogenate is centrifuged at 4° C. at 1800 × g for 15 minutes. The supernatant is collected and stored on ice while the pellets are resuspended in homogenization buffer (without DNAse I) and rehomogenized as described above. The homogenate is centrifuged at 1800 × g for 15 minutes. The second supernatant is combined with the first supernatant and centrifuged an additional time at 1800 × g for 15 minutes. The overall supernatant is then centrifuged at 25000 × g for 30 minutes at 4° C. The resulting membrane pellet is resuspended in homogenization buffer (without DNAse I) containing protease inhibitors at approximately 1 to 3 mg/mL and stored as aliquots in a -80° C. freezer until use.
The human GLP-1 receptor binding assay is performed using an SPA format with WGA beads. The binding buffer contains 25 mM HEPES, pH 7.4, 2.5 mM CaCl2, 1 mM MgCl2, 0.1% (w/v) bacitracin, 0.003% (w/v) TWEEN®-20, and Roche Complete™ Protease Inhibitors without EDTA.
Raw CPM data for concentration curves of peptides, Gcg, GLP-1, or GIP are converted to percent inhibition by subtracting nonspecific binding (binding in the presence of excess unlabeled Gcg, GLP-1, or GIP, respectively) from the individual CPM values and dividing by the total binding signal, also corrected by subtracting nonspecific binding. Data are analyzed using four-parameter (curve maximum, curve minimum, IC50, Hill slope) nonlinear regression routines (Genedata Screener, version 12.0.4, Genedata AG, Basal, Switzerland). […] Values for Ki are reported as the geometric mean, with error expressed as the standard error of the mean (SEM) and n is equal to the number of independent replicates (determined in assays performed on different days). Geometric Means are calculated as follows: […]
The Ki Ratio (Ki for native control peptide/Ki for test compound) at each receptor and each species is calculated. The Ki Ratio is a rapid indication of the apparent affinity of a peptide compared to the native control peptide.
n=⅟x means that only one value out of the total number of replicates (x) is used to express the mean. SEM is only calculated when n=2 or greater non-qualified results exist. Means are expressed as GeoMetric means with the standard error of the mean (SEM) and the number of replicates (n) indicated in parenthesis.

[2] = biological target: T2, hGIPR (Homo sapiens, UniProt P48546); test: Functional cAMP formation (HTRF) in HEK-293 clonal cells expressing hGIPR, 0.1% bovine casein, without or with 1.0% human serum albumin; format: cell-based; settings: 37° C.; for Emax: HEK293, cAMP, percent of maximal response to GIP(1-42)NH2, read-out: hGIPR Emax, % ± SEM; for EC50: cAMP, read-out: hGIPR EC50, nM (SEM, n)
T2 construct: expressed in transfected cells
T2 sequence (P48546 22-466): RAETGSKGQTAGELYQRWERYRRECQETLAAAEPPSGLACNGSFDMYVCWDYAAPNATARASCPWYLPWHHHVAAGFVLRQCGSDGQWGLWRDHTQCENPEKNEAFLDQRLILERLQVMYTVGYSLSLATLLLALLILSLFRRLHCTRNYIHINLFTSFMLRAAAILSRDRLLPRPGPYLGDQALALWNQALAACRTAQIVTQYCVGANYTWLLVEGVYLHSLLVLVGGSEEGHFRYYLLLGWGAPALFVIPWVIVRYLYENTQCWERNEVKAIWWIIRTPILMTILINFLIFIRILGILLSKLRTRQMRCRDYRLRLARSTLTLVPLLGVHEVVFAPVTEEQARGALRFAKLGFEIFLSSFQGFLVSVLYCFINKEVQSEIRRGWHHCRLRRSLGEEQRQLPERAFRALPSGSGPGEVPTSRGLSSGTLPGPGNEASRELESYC
Method in brief: (§1)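 Cells were stimulated with peptide for 30 min at 37° C, then lysed in buffer carrying cAMP-d2 and anti-cAMP Eu3+-cryptate for a competitive HTRF read after at least 60 min at room temperature. The 665/620 nm ratio was converted to nM cAMP against a standard curve.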

[3] = biological target: T3, hGCGR (Homo sapiens, UniProt P47871); test: Functional cAMP formation (HTRF) in HEK-293 clonal cells expressing hGCGR, 0.1% bovine casein, without or with 1.0% human serum albumin; format: cell-based; settings: cAMP, 37° C., read-out: hGCGR EC50, nM (SEM, n)
T3 construct: expressed in transfected cells
T3 sequence (P47871 26-477): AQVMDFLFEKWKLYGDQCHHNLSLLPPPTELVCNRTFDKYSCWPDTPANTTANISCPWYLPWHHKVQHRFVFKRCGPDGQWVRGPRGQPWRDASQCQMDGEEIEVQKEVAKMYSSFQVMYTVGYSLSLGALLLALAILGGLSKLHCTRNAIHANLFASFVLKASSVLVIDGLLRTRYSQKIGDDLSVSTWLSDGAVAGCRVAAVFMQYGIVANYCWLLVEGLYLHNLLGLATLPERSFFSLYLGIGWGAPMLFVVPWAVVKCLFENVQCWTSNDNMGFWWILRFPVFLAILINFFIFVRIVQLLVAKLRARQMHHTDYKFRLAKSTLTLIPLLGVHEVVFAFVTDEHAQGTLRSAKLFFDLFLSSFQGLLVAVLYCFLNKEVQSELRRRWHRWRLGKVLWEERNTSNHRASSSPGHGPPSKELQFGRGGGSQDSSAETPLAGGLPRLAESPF
Method in brief: as §1

[4] = biological target: hGLP-1R (Homo sapiens, UniProt P43220); test: Functional cAMP formation (HTRF) in HEK-293 clonal cells expressing hGLP-1R, 0.1% bovine casein, without or with 1.0% human serum albumin; format: cell-based; set-up: expressed in transfected cells; settings: 37° C.; for Emax: HEK293, cAMP, percent of maximal response to GLP-1(7-36)NH2, read-out: hGLP-1R Emax, % ± SEM; for EC50: cAMP, 0.1% bovine casein (no human serum albumin), geometric mean, read-out: hGLP-1R EC50, nM (SEM, n)
Sequence of hGLP-1R (P43220 24-463): as the sequence (P43220 24-463) above
Method in brief: as §1

[5] = 0.1% bovine casein and 1.0% human serum albumin
[6] = 0.1% bovine casein, arithmetic mean
[7] = 0.1% bovine casein (no human serum albumin), geometric mean
[8] = 0.1% bovine casein and 1.0% human serum albumin, geometric mean (SEM, n)

Structure (SMILES): CC[C@H](C)[C@H](NC(=O)[C@H](CC(C)C)NC(=O)[C@](C)(Cc1ccc(O)cc1)NC(=O)[C@H](CCCCNC(=O)COCCOCCNC(=O)COCCOCCNC(=O)CC[C@H](NC(=O)CCCCCCCCCCCCC(=O)O)C(=O)O)NC(=O)[C@@H](NC(=O)[C@H](Cc1ccccc1)NC(=O)[C@H](CCCN)NC(=O)C(C)(C)NC(=O)[C@H](CCC(N)=O)NC(=O)[C@H](C)NC(=O)[C@H](CCC(N)=O)NC(=O)[C@H](CCCN)NC(=O)[C@H](CC(=O)O)NC(=O)[C@H](CC(C)C)NC(=O)[C@](C)(CC(C)C)NC(=O)CNC(=O)C(C)(C)NC(=O)[C@H](Cc1ccncc1)NC(=O)[C@H](CC(=O)O)NC(=O)[C@H](CO)NC(=O)[C@@H](NC(=O)[C@](C)(Cc1ccccc1F)NC(=O)[C@@H](NC(=O)CNC(=O)[C@H](CCC(=O)O)NC(=O)C(C)(C)NC(=O)[C@@H](N)Cc1ccc(O)cc1)[C@@H](C)O)[C@@H](C)O)[C@@H](C)CC)C(=O)N[C@@H](CCCCNC(=O)COCCOCCNC(=O)COCCOCCNC(=O)CC[C@H](NC(=O)CCCCCCCCCCCCC(=O)O)C(=O)O)C(=O)NCC(=O)NCC(=O)N1CCC[C@H]1C(=O)N[C@@H](CO)C(=O)N[C@@H](CO)C(=O)NCC(=O)N[C@@H](C)C(=O)N1CCC[C@H]1C(=O)N1CCC[C@H]1C(=O)N1CCC[C@H]1C(=O)N[C@@H](CO)C(N)=O [Example 441] (H-Y[Aib]EGT[αMePhe(2-F)]TSD[4Pal][Aib]G[αMeL]LD[Orn]QAQ[Aib][Orn]FIK([AEEA-AEEA-γGlu-C14 diacid])[αMeY]LIK([AEEA-AEEA-γGlu-C14 diacid])GGPSSGAPPPS-NH2)
- Ki [1]: 0.386 nM
- Emax [2, 5]: 83.8%
- Emax [2, 6]: 97.2%
- EC50 [2, 7]: 0.0174 nM
- EC50 [2, 8]: 1.38 nM
- EC50 [3, 7]: > 9950 nM
- EC50 [3, 8]: > 9950 nM
- Emax [4, 5]: 111%
- Emax [4, 6]: 110%
- EC50 [4]: 0.134 nM

Structure (SMILES): CCCCCCCCCCCC(=O)N[C@@H](CCC(=O)NCCOCCOCC(=O)NCCOCCOCC(=O)NCCOCCOCC(=O)NCCCC[C@H](NC(=O)[C@H](CCCN)NC(=O)[C@H](CC(=O)O)NC(=O)[C@H](CC(C)C)NC(=O)[C@](C)(CC(C)C)NC(=O)[C@@H](NC(=O)C(C)(C)NC(=O)[C@H](CCCCNC(=O)COCCOCCNC(=O)COCCOCCNC(=O)COCCOCCNC(=O)CC[C@H](NC(=O)CCCCCCCCCCC)C(=O)O)NC(=O)[C@H](CC(=O)O)NC(=O)[C@H](CO)NC(=O)[C@@H](NC(=O)[C@](C)(Cc1ccccc1F)NC(=O)[C@@H](NC(=O)CNC(=O)[C@H](CCC(=O)O)NC(=O)C(C)(C)NC(=O)[C@@H](N)Cc1ccc(O)cc1)[C@@H](C)O)[C@@H](C)O)[C@@H](C)CC)C(=O)N[C@@H](C)C(=O)N[C@@H](CCC(N)=O)C(=O)NC(C)(C)C(=O)N[C@@H](CCC(=O)O)C(=O)N[C@@](C)(Cc1ccccc1)C(=O)N[C@H](C(=O)N[C@H](CCC(=O)O)C(=O)N[C@@](C)(Cc1ccc(O)cc1)C(=O)N[C@@H](CC(C)C)C(=O)N[C@H](C(=O)N[C@@H](CCC(=O)O)C(=O)NCC(=O)NCC(=O)N1CCC[C@H]1C(=O)N[C@@H](CO)C(=O)N[C@@H](CO)C(=O)NCC(=O)N[C@@H](C)C(=O)N1CCC[C@H]1C(=O)N1CCC[C@H]1C(=O)N1CCC[C@H]1C(=O)N[C@@H](CO)C(N)=O)[C@@H](C)CC)[C@@H](C)CC)C(=O)O [Example 436]
- Ki [1]: 0.412 nM
- Emax [2, 5]: 96%
- EC50 [2, 7]: 0.00714 nM
- EC50 [3, 7]: > 9950 nM
- EC50 [3, 8]: > 9950 nM
- Emax [4, 5]: 100%
- Emax [4, 6]: 98.9%
- EC50 [4]: 0.102 nM

Structure (SMILES): CC[C@H](C)[C@H](NC(=O)[C@H](CC(C)C)NC(=O)[C@](C)(Cc1ccc(O)cc1)NC(=O)[C@H](CCCCNC(=O)CCOCCOCCOCCOCCNC(=O)CC[C@H](NC(=O)CCCCCCCCCCCCC(=O)O)C(=O)O)NC(=O)[C@@H](NC(=O)[C@H](Cc1ccccc1)NC(=O)[C@H](CCCN)NC(=O)C(C)(C)NC(=O)[C@H](CCC(N)=O)NC(=O)[C@H](C)NC(=O)[C@H](CCC(N)=O)NC(=O)[C@H](CCCN)NC(=O)[C@H](CC(=O)O)NC(=O)[C@H](CC(C)C)NC(=O)[C@](C)(CC(C)C)NC(=O)[C@@H](NC(=O)C(C)(C)NC(=O)[C@H](Cc1ccncc1)NC(=O)[C@H](CC(=O)O)NC(=O)[C@H](CO)NC(=O)[C@@H](NC(=O)[C@](C)(Cc1ccccc1F)NC(=O)[C@@H](NC(=O)CNC(=O)[C@H](CCC(=O)O)NC(=O)C(C)(C)NC(=O)[C@@H](N)Cc1ccc(O)cc1)[C@@H](C)O)[C@@H](C)O)[C@@H](C)CC)[C@@H](C)CC)C(=O)N[C@@H](CCCCNC(=O)CCOCCOCCOCCOCCNC(=O)CC[C@H](NC(=O)CCCCCCCCCCCCC(=O)O)C(=O)O)C(=O)NCC(=O)NCC(=O)N1CCC[C@H]1C(=O)N[C@@H](CO)C(=O)N[C@@H](CO)C(=O)NCC(=O)N[C@@H](C)C(=O)N1CCC[C@H]1C(=O)N1CCC[C@H]1C(=O)N1CCC[C@H]1C(=O)N[C@@H](CO)C(N)=O [Example 457]
- Ki [1]: 0.252 nM
- EC50 [2, 7]: 0.0106 nM
- EC50 [3, 7]: > 9950 nM
- EC50 [3, 8]: > 9950 nM
- Emax [4, 6]: 119%
- EC50 [4]: 0.185 nM
